Test results reported in ChEMBL document CHEMBL1201862, “PubChem BioAssay data set” (2004).
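Growth conditions: 96-well plates. Treatment: test compound, 48 hours, 5 concentrations. Analysis: linear interpolation between bracketing concentrations; unreached endpoints set to highest concentration. Here, GI50 denotes the concentration required for 50% inhibition of growth.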 Calls of active or inactive are those of the source. No stated cut-off is given here; in the data, active = GI50 up to about 1.1 µM and inactive = higher.

Legend:
Assay in all cases: growth of human tumour cells (NCI), 48 h
ACHN = system: ACHN
786-0 = system: 786-0
HCT-15 = system: HCT-15
SF-539 = system: SF-539
MDA-MB-435 = system: MDA-MB-435
UACC-257 = system: UACC-257
HCT-116 = system: HCT-116
RXF 393 = system: RXF 393
OVCAR-5 = system: OVCAR-5
SK-OV-3 = system: SK-OV-3
U-251 = system: U-251
HL-60 = system: HL-60
MCF7 = system: MCF7
UACC-62 = system: UACC-62
UO-31 = system: UO-31
LOX IMVI = system: LOX IMVI
PC-3 = system: PC-3
SR = system: SR
A498 = system: A498
SNB-75 = system: SNB-75

Row | SMILES | GI50 (ACHN) | GI50 (786-0) | GI50 (HCT-15) [µM] | GI50 (SF-539) | GI50 (MDA-MB-435) | GI50 (UACC-257) | GI50 (HCT-116) | GI50 (RXF 393) | GI50 (OVCAR-5) | GI50 (SK-OV-3) | GI50 (U-251) | GI50 (HL-60) | GI50 (MCF7) | GI50 (UACC-62) | GI50 (UO-31) | GI50 (LOX IMVI) | GI50 (PC-3) | GI50 (SR) | GI50 (A498) | GI50 (SNB-75)
1 | C/C(=N/O)c1cccc(Nc2nc3ccccc3c3[nH]c4ccccc4c23)c1 | 1.59 µM (inactive) | 2.3 µM (inactive) | 2.36 | 5.74 µM (inactive) | 2.5 µM (inactive) | 6.08 µM (inactive) | 1.16 µM (inactive) | 1.89 µM (inactive) | 2.65 µM (inactive) | 5.98 µM (inactive) | 3.16 µM (inactive) | 3.08 µM (inactive) | 1.48 µM (inactive) | 2.28 µM (inactive) | 2.88 µM (inactive) | 2.22 µM (inactive) | 2.93 µM (inactive) | 1.15 µM (inactive) | – | –
2 | COc1cc2c(cc1OC)C1=C(C=O)c3ccc(OC)c(OC)c3C(O)N1CC2 (configuration not stated) | 28.2 µM (inactive) | 35.2 µM (inactive) | 30.8 | 12.9 µM (inactive) | 32.2 µM (inactive) | 18.5 µM (inactive) | 30.5 µM (inactive) | – | 31.7 µM (inactive) | 65.8 µM (inactive) | 19.2 µM (inactive) | 16.3 µM (inactive) | 32.6 µM (inactive) | 13.8 µM (inactive) | 37.5 µM (inactive) | – | 17.5 µM (inactive) | – | 21.8 µM (inactive) | 4.75 µM (inactive)
3 | Cc1ccc(-c2cc(=O)c(=O)[nH][nH]2)cc1 | > 100 µM (inactive) | > 100 µM (inactive) | > 100 | > 100 µM (inactive) | > 100 µM (inactive) | > 100 µM (inactive) | > 100 µM (inactive) | > 100 µM (inactive) | > 100 µM (inactive) | > 100 µM (inactive) | > 100 µM (inactive) | – | > 100 µM (inactive) | > 100 µM (inactive) | > 100 µM (inactive) | > 100 µM (inactive) | > 100 µM (inactive) | > 100 µM (inactive) | > 100 µM (inactive) | 18 µM (inactive)
4 | Cc1n[nH]c(=O)n1N=C(c1ccccc1)c1ccccc1 | > 100 µM (inactive) | > 100 µM (inactive) | > 100 | – | > 100 µM (inactive) | > 100 µM (inactive) | > 100 µM (inactive) | 1.26 µM (inactive) | > 100 µM (inactive) | – | > 100 µM (inactive) | – | > 100 µM (inactive) | > 100 µM (inactive) | > 100 µM (inactive) | > 100 µM (inactive) | > 100 µM (inactive) | – | > 100 µM (inactive) | –
5 | S=C1C=C(c2ccccc2)Sc2ccccc2N1 | > 100 µM (inactive) | > 100 µM (inactive) | > 100 | – | – | 48.6 µM (inactive) | 79.8 µM (inactive) | 8.95 µM (inactive) | > 100 µM (inactive) | > 100 µM (inactive) | > 100 µM (inactive) | 53.8 µM (inactive) | > 100 µM (inactive) | > 100 µM (inactive) | > 100 µM (inactive) | > 100 µM (inactive) | > 100 µM (inactive) | > 100 µM (inactive) | – | 61.7 µM (inactive)
6 | C=C1C[C@@H]2CC[C@@]34CC5O[C@H]6C(O[C@H]7CC[C@H](CC(=O)O[C@@H]8[C@@H](C)[C@@H]9O[C@@H]%10C[C@]%11(C[C@@H]%12O[C@]%13(C[C@H](C)[C@@H]%14O[C@@H]%15CC(C(COC(C)=O)OC(C)=O)O[C@@H]%15C[C@@H]%14O%13)C[C@H](C)[C@@H]%12O%11)O[C@@H]%10C[C@@H]9O[C@H]8CC8O[C@@H](CC[C@@H]1O2)C[C@@H](C)C8(O)CO)O[C@@H]7[C@@H]6O3)[C@H]5O4 (some centres not stated) | 0.708 µM (active) | 0.392 µM (active) | 0.527 | – | 0.0826 µM (active) | 0.0716 µM (active) | 0.292 µM (active) | 0.0359 µM (active) | > 1 µM (active) | > 1 µM (active) | 0.436 µM (active) | – | 0.249 µM (active) | 0.242 µM (active) | > 0.805 µM (active) | 0.432 µM (active) | 0.399 µM (active) | 0.117 µM (active) | > 0.597 µM (active) | 0.336 µM (active)
7 | CC[C@@H]1ON(C)[C@H]2CN(C)C(=O)[C@@H]12 | > 100 µM (inactive) | – | > 100 | – | > 100 µM (inactive) | > 100 µM (inactive) | > 100 µM (inactive) | – | > 100 µM (inactive) | > 100 µM (inactive) | > 100 µM (inactive) | > 100 µM (inactive) | > 100 µM (inactive) | – | > 100 µM (inactive) | > 100 µM (inactive) | > 100 µM (inactive) | > 100 µM (inactive) | – | –
8 | O=C1CC(C(COCc2ccccc2)OCc2ccccc2)CC(=O)N1 (configuration not stated) | > 100 µM (inactive) | > 100 µM (inactive) | > 100 | > 100 µM (inactive) | > 100 µM (inactive) | > 100 µM (inactive) | > 100 µM (inactive) | – | > 100 µM (inactive) | – | > 100 µM (inactive) | > 100 µM (inactive) | > 100 µM (inactive) | – | > 100 µM (inactive) | > 100 µM (inactive) | 83.2 µM (inactive) | > 100 µM (inactive) | – | –
9 | COc1ccc2nc3cc([N+](=O)[O-])ccc3c(Nc3ccc(S(=O)(=O)Nc4ncccn4)cc3)c2c1 | 28.8 µM (inactive) | 67 µM (inactive) | > 69.8 | > 100 µM (inactive) | > 67.3 µM (inactive) | > 71.1 µM (inactive) | 40.6 µM (inactive) | > 100 µM (inactive) | > 100 µM (inactive) | > 100 µM (inactive) | > 55 µM (inactive) | > 100 µM (inactive) | 15.3 µM (inactive) | > 65.9 µM (inactive) | 19.4 µM (inactive) | > 73.8 µM (inactive) | 30.6 µM (inactive) | 6.24 µM (inactive) | – | 62.2 µM (inactive)
10 | Oc1cc(O)c2ccc(-c3ccc(O)c(O)c3)[o+]c2c1 | > 100 µM (inactive) | > 100 µM (inactive) | > 100 | > 100 µM (inactive) | > 100 µM (inactive) | > 100 µM (inactive) | > 100 µM (inactive) | 63.8 µM (inactive) | > 100 µM (inactive) | > 100 µM (inactive) | > 100 µM (inactive) | > 100 µM (inactive) | > 100 µM (inactive) | > 100 µM (inactive) | > 100 µM (inactive) | > 100 µM (inactive) | > 100 µM (inactive) | – | > 100 µM (inactive) | > 100 µM (inactive)
11 | O=C1NC(=S)NC(=O)C1=Cc1ccc(-c2ccccc2)cc1 | > 100 µM (inactive) | > 100 µM (inactive) | > 100 | > 100 µM (inactive) | > 100 µM (inactive) | > 100 µM (inactive) | 51.3 µM (inactive) | 94.4 µM (inactive) | > 100 µM (inactive) | > 100 µM (inactive) | 54.1 µM (inactive) | – | 72.8 µM (inactive) | > 100 µM (inactive) | > 100 µM (inactive) | 69.3 µM (inactive) | > 100 µM (inactive) | – | – | –
12 | CC(C)CCCC(C)[C@H]1CC[C@H]2[C@@H]3CC[C@H]4C[C@@H](CCC=C(c5cc(Cl)c(O)c(C(=O)O)c5)c5cc(Cl)c(O)c(C(=O)O)c5)CC[C@]4(C)[C@H]3CC[C@]12C (some centres not stated) | > 50 µM (inactive) | 32.2 µM (inactive) | 36.1 | > 50 µM (inactive) | > 50 µM (inactive) | – | > 50 µM (inactive) | > 50 µM (inactive) | > 50 µM (inactive) | > 50 µM (inactive) | > 50 µM (inactive) | > 50 µM (inactive) | > 50 µM (inactive) | > 50 µM (inactive) | 6.03 µM (inactive) | > 50 µM (inactive) | > 50 µM (inactive) | – | > 50 µM (inactive) | > 50 µM (inactive)
13 | O=C1/C(=C/c2ccc(Cl)cc2)Sc2scc(-c3cccc([N+](=O)[O-])c3)[n+]21 | 2.49 µM (inactive) | 2.16 µM (inactive) | 1.9 | 2.3 µM (inactive) | 3.4 µM (inactive) | 4.61 µM (inactive) | 2.06 µM (inactive) | 2.42 µM (inactive) | 10.8 µM (inactive) | 10.5 µM (inactive) | 4.55 µM (inactive) | 0.308 µM (active) | 3.91 µM (inactive) | 3.16 µM (inactive) | 4.43 µM (inactive) | 3.01 µM (inactive) | 7.5 µM (inactive) | 0.296 µM (active) | – | 0.971 µM (active)
14 | COc1cc(/C=C2\C[C@H]3[C@@H]4CCc5cc(O)ccc5[C@H]4CC[C@]3(C)C2=O)cc(OC)c1OC | 15.5 µM (inactive) | 15.6 µM (inactive) | 25.8 | 25.8 µM (inactive) | 16.9 µM (inactive) | 10.8 µM (inactive) | 13.4 µM (inactive) | 9.57 µM (inactive) | 17.7 µM (inactive) | 21.2 µM (inactive) | 15.8 µM (inactive) | – | 52.6 µM (inactive) | 22.7 µM (inactive) | 11.6 µM (inactive) | 15.5 µM (inactive) | 10.1 µM (inactive) | 3.21 µM (inactive) | 32.4 µM (inactive) | 12.2 µM (inactive)
15 | Cn1c2ccccc2c2c3c(c4c5ccccc5n(C)c4c21)C(=O)c1ccccc1C3=O | 28.2 µM (inactive) | 14.1 µM (inactive) | > 100 | 16.6 µM (inactive) | 51.3 µM (inactive) | 79.6 µM (inactive) | 30.1 µM (inactive) | 16.3 µM (inactive) | > 100 µM (inactive) | 48.9 µM (inactive) | 17.9 µM (inactive) | 21 µM (inactive) | 67.1 µM (inactive) | 25.9 µM (inactive) | 67.3 µM (inactive) | 37.3 µM (inactive) | 45.8 µM (inactive) | 18.7 µM (inactive) | – | 35.3 µM (inactive)
